Experimental data reported in ChEMBL document CHEMBL1157886, “Potent dihydroquinolinone dopamine D2 partial agonist/serotonin reuptake inhibitors for the treatment of schizophrenia” (Bioorg Med Chem Lett, 2010).

How the values were obtained:
D(2) dopamine receptor [1] = target: T1, D(2) dopamine receptor (Homo sapiens, UniProt P14416); test: Displacement of [3H]spiperone form human dopamine D2 receptor by liquid scintillation counting
[2] = target: Sodium-dependent serotonin transporter (Homo sapiens, UniProt P31645)
D(2) dopamine receptor [3] = target: T1, D(2) dopamine receptor; test: Ratio of compound to quinpirole partial agonist activity at human dopamine D2 receptor; assay type: functional
[4] = target: T2, Adrenergic receptor alpha-1 (Homo sapiens, UniProt P35348+P25100+P35368); test: Binding affinity to human alpha1 adrenergic receptor by radioligand displacement assay
T2 sequence (P35348 whole entry): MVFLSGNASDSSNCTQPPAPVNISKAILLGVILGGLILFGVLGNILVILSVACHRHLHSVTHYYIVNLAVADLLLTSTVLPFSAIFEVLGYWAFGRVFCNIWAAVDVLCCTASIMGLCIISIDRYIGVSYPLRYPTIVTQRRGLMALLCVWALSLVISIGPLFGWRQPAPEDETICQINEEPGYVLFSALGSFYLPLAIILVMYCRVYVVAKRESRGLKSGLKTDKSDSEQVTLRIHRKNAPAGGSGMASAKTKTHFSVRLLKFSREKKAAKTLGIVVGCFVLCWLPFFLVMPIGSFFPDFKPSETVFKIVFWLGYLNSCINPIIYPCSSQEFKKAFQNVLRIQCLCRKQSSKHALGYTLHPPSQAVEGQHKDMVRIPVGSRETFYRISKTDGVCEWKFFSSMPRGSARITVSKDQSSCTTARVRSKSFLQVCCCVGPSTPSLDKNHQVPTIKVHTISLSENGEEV
T2 sequence (P25100 whole entry): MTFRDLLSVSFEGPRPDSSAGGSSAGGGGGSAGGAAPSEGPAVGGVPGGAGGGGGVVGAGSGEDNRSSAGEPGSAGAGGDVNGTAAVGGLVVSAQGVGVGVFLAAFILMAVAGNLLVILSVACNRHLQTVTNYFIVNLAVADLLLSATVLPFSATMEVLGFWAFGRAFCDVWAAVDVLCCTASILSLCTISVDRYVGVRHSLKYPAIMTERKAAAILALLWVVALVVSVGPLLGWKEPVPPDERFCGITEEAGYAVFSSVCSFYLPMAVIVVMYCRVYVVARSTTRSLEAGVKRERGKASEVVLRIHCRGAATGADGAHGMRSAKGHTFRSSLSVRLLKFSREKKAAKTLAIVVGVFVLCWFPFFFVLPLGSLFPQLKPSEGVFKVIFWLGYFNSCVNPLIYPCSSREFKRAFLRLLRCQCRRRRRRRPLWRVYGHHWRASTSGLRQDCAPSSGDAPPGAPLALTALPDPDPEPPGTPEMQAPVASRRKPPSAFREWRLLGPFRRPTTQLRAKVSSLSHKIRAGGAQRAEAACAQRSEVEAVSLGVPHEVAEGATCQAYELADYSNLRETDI
T2 sequence (P35368 whole entry): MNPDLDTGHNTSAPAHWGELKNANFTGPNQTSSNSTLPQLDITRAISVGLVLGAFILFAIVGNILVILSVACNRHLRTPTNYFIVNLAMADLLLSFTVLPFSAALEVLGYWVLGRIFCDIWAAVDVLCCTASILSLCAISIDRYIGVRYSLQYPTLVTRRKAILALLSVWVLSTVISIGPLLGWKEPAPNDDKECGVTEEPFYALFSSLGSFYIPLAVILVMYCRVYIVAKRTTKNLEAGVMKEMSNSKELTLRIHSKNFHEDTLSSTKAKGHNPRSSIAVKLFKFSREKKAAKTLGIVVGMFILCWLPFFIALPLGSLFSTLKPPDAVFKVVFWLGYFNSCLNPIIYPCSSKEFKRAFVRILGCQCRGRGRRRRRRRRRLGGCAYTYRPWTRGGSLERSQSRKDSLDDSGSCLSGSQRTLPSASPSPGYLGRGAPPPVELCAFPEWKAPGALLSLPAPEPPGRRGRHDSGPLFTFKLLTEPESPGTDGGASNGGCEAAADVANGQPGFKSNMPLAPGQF

T1 sequence (P14416 whole entry): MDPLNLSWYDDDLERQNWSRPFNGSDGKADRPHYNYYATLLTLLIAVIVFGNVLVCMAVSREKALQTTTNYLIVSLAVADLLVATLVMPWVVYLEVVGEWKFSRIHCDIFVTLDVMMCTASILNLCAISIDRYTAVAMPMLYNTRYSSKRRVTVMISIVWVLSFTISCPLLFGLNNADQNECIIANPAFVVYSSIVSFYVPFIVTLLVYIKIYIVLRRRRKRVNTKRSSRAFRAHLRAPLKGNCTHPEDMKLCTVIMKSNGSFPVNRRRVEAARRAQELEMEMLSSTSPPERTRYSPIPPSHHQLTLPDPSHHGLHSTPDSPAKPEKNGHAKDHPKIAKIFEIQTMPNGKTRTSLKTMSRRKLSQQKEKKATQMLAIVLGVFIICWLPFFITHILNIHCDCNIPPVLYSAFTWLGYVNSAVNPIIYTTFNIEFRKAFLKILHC
Chain of Sodium-dependent serotonin transporter (P31645 whole entry): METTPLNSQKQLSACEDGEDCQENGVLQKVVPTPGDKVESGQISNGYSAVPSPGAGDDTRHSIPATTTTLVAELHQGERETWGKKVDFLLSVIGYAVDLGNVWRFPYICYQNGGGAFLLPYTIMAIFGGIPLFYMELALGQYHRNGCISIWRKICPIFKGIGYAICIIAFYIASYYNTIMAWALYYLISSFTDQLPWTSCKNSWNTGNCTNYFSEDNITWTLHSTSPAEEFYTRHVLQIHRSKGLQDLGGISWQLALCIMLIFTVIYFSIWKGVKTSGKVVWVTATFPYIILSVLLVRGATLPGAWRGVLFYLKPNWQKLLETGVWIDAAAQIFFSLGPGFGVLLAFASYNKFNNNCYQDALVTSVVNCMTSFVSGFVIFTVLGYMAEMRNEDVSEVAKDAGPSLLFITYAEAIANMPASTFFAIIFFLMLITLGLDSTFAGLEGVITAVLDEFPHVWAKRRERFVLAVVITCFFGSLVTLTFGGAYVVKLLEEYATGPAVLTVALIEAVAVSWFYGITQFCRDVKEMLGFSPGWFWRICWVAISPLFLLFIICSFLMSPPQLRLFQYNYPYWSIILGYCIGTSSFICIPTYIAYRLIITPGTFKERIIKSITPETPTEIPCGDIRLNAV

| SMILES | Ki (D(2) dopamine receptor [1]) | Ki [2] | Ratio (D(2) dopamine receptor [3]) | Ki [4] |
| --- | --- | --- | --- | --- |
| CS(=O)(=O)Nc1cc(OCCN2CCC(Cc3ccc4c(c3)NC(=O)CC4)CC2)ccc1F | 19 nM | 20 nM | < 0.1 | – |
| O=C1CCc2ccc(CC3C4CCC3CN(C[C@@H]3COc5c(ccc6c5CC(=O)N6)O3)C4)cc2N1 (some centres undefined) | 6.3 nM | 1.5 nM | 0.4 | 46 nM |
| O=C1CCc2ccc(OC3CCN(C[C@@H]4COc5c(ccc6c5CC(=O)N6)O4)CC3)cc2N1 | 2.5 nM | 20 nM | 0.41 | 2 nM |
| O=C1CCc2ccc(CC3CC4CCC(C3)N4C[C@@H]3COc4c(ccc5c4CC(=O)N5)O3)cc2N1 (some centres undefined) | 16 nM | 0.26 nM | < 0.1 | 8 nM |
| CS(=O)(=O)Nc1cccc(OCCN2CCC(Oc3ccc4c(c3)NC(=O)CC4)CC2)c1 | 18 nM | 22 nM | 0.21 | 91 nM |
| CS(=O)(=O)Nc1cccc(OCCN2CC3CCC(C2)C3Cc2ccc3c(c2)NC(=O)CC3)c1 (centres undefined) | 11 nM | 1.7 nM | 0.25 | > 3300 nM |
| O=C1CCc2ccc(OCCCCN3CCN(c4cccc5[nH]c(=O)oc45)CC3)cc2N1 | 8.3 nM | 94 nM | – | – |
| CS(=O)(=O)Nc1cccc(OCCN2CCC(Cc3ccc4c(c3)NC(=O)CC4)CC2)c1 | 9 nM | 19 nM | < 0.1 | – |
| O=C1CCc2ccc(OCCCN3CCN(c4cccc5[nH]c(=O)oc45)CC3)cc2N1 | 8.6 nM | 93 nM | – | – |
| CS(=O)(=O)Nc1cc(OCCN2CC3CCC(C2)C3Cc2ccc3c(c2)NC(=O)CC3)ccc1F (centres undefined) | 7 nM | 5 nM | 0.85 | 1100 nM |
| O=C1CCc2ccc(CC3CCN(C[C@@H]4COc5c(ccc6c5CC(=O)N6)O4)CC3)cc2N1 | 8 nM | 1.9 nM | 0.38 | 2 nM |
| CS(=O)(=O)Nc1cc(OCCN2CCC(Oc3ccc4c(c3)NC(=O)CC4)CC2)ccc1F | 9 nM | 30 nM | < 0.1 | 354 nM |
| O=C1CCc2ccc(OCCN3CCN(c4cccc5[nH]c(=O)oc45)CC3)cc2N1 | 8.6 nM | 538 nM | – | – |
